From paper PMC5603865, “Synthesis, In-Vitro Activity and Metabolic Properties of Quinocetone and Structurally Similar Compounds” (Iranian Journal of Pharmaceutical Research : IJPR, 2017)
≈ marks a conversion by molar mass, not a printed value. Like-named read-outs stand apart in the source and are kept apart here.

Tests used:
[1] = tested on: Aeromonas hydrophila; assay: In-vitro antibacterial activity, MIC by broth dilution; assay type: cell-based; settings: 24 h; for MIC: Aeromonas hydrophila, read-out: MIC values Aeromonas hydrophila
Protocol: (§1) All test compounds were dissolved in dimethyl sulfoxide (DMSO, Sigma, USA) and then diluted in Dulbecco’s modified Eagle’s medium (DMEM, Gibco, USA) at desired concentrations for cell proliferation analyses or diluted in nutrient broth medium for antimicrobial susceptibility testing respectively. The final concentration of DMSO in the DMEM culture medium was under 0.1% (v:v).
(§2) The preliminary antibacterial activities were obtained for selected compounds against various bacteria, namely: Staphyloccocus aureus ATCC25923 (Gram-positive bacteria), Clostridium perfringen CVCC52,8604 (anaerobes bacteria), Salmonella pullorum (Gram-negative bacteria), Escherichia coli ATCC25922 (Gram negative bacteria) and Aeromonas hydrophila (Gram-negative bacteria) were used in the study. Each strain was cultured in appropriate broth medium. Clostridium perfringen was incubated in an anaerobic chamber. The minimum inhibitory concentration (MIC) for each test compound was estimated using the broth dilution method. The MIC’s was determined for each strain/compound pairs that presented antimicrobial activity. The method was modified from Mohapatra›s methods ([14], [15]). Cell suspensions were prepared in 2 mL of liquid medium with concentrations of various tests of compounds in 15 mL culture tubes by inoculation with 100 μL of 10^6 cfu/mL from each stock. The cultures were incubated at 28 °C or 37 °C for 24 h. Tubes showing no visible turbidity represented the MIC, and subsequently, were inoculated on the right side of the 9cm sterile nutrient agar plates without various test compounds and incubated for 24 h (Clostridium perfringen was incubated in an anaerobic chamber.). The least concentration, at which no growth was observed, represented the minimum bactericidal concentration (MBC) ([16]).

[2] = tested on: Escherichia coli ATCC25922; assay: as above; assay type: cell-based; settings: for MIC: Escherichia coli, read-out: MIC values Escherichia coli ATCC25922
Protocol: as §1, §2

[3] = tested on: Salmonella pullorum; assay: as above; assay type: cell-based; settings: 24 h; for MIC: Salmonella enterica, PULLORUM
Protocol: as §1, §2

[4] = tested on: Staphyloccocus aureus ATCC25923; assay: as above; assay type: cell-based; settings: 24 h; for MIC: read-out: MIC values Staphyloccocus aureus ATCC25923
Protocol: as §1, §2

[5] = tested on: Clostridium perfringen CVCC52,8604; assay: In-vitro antibacterial activity, MIC by broth dilution (anaerobic chamber); assay type: cell-based; settings: 24 h; for MIC: Clostridium
Protocol: as §1, §2

[6] = tested on: HepG2 cells; assay: In-vitro cytotoxicity, MTT cell proliferation assay; assay type: cell-based, human; settings: 24 h incubation, concentration reducing viable cells by 50%
Protocol: as §1
(§3) HepG2 and normal human Chang liver cells were obtained from the Institute of Biochemistry and Cell Biology, Shanghai Institutes for Biological Sciences, Chinese Academy of Sciences (Shanghai, China). HepG2 and normal human Chang liver cells were cultured at 37˚Cwith 5% CO2 in DMEM supplemented with 2% L-glutamine, 10% fetal bovine serum (Gibco, USA), 100 U/mL penicillin and 100 […] (Gibco, USA).
(§4) The methodology for evaluating the cytotoxicity inhibitory activity of various test compounds towards cell proliferation has been described previously ([11], [17]). Cell proliferation inhibitory analyses were carried out using the 3-(4,5-dimethylthiazole-2-yl)-2,5-diphenyl tetrazolium bromide (MTT, Sigma, USA) assay. Briefly, cancers HepG2 and normal human Chang liver cells were harvested and resuspended in fresh growth medium. A 100 μL cell suspension (5 × 10^4 cells/mL) was aliquoted into each well of a 96-well culture plate. After 12 h incubation, the medium was replaced with fresh medium containing various concentrations of test compounds. The cells were then incubated for another 24 h. At the end of exposure, 10 μL of MTT solution (5 mg/mL) was added, and the cells were incubated for 4 h at 37 °C. The cells were treated with 100 μL DMSO, and absorbance was recorded at 570 nm using a microplate ELISA reader (ELX800, Bio-Tek, USA). All experiments were performed at least thrice, and data were presented as the mean of sixplicate wells ± standard deviation (SD). Cell inhibition was calculated as follows:
(§5) (OD of control group − OD of experimental group) / (OD of control group − OD of blank group) ×100%. The IC50 value for a compound was calculated using SPSS.

[7] = tested on: normal human Chang liver cells; assay: as above; assay type: cell-based; settings: 24 h incubation, concentration reducing viable cells by 50%
Protocol: as §1, §3, §4, §5

[8] = tested on: Gram-positive and Gram-negative bacteria; assay: Antibacterial activity class based on the MIC results; assay type: cell-based
Protocol: as §2
In this study, activity of quinoxaline-1, 4-dioxides and their deoxygenations was tested against selected Gram-negative bacteria (Escherichia coli, Salmonella pullorum and Aeromonas hydrophila), Gram-positive bacteria (Staphyloccocus aureus and Clostridium perfringen). The in-vitro antibacterial activity was based on the MIC results: Strong antibacterial activity, if MIC is less than 50 μg/mL; Moderate, if MIC is in between 50 and 250 μg/mL; No activity, if MIC is more than 500 μg/mL.

[9] = ATCC25922, broth dilution, 24 h
[10] = Homo sapiens, Chang liver, 24 h

Compound | MIC values Aeromonas hydrophila ([1]; broth dilution) [µg/mL] | MIC values Escherichia coli ATCC25922 ([2]; broth dilution, 24 h) [µg/mL] | MIC values Salmonella pullorum [3] [µg/mL] | MIC values Staphyloccocus aureus ATCC25923 ([4]; broth dilution) [µg/mL] | MIC values Clostridium perfringen [5] [µg/mL] | IC50 [6] [µM] | IC50 [7] [µM] | MIC ([1]; broth dilution) [µg/mL] | MIC [2, 9] [µg/mL] | MIC [3] [µg/mL] | MIC ([4]; broth dilution) [µg/mL] | MIC [5] [µg/mL] | IC50 ([6]; Homo sapiens, HepG2, 24 h) [µM] | IC50 [7, 10] [µM] | antibacterial activity against Gram-positive and Gram-negative bacteria [8] | MIC ([2]; ATCC25922, 24 h) [µg/mL] | MIC [4] [µg/mL] | MIC [1] [µg/mL]
2-(3-phenyl-2-propenyl) -3-methylquinoxaline [Compound 5a] | >500 | >500 | >500 | >500 | >500 | 451 ± 11.1 | 532 ± 7.66 |  |  |  |  |  |  |  |  |  |  | 
Cc1nc2ccccc2nc1C(=O)/C=C/c1ccco1 [Compound 7, 3-methyl-2-(3-fura-2-propenoyl)-quinoxaline] |  |  |  |  |  |  |  | 338 (≈ 1280 µM) | > 500 | > 500 | > 500 | > 500 | 441 ± 12.3 | 469 ± 5.26 |  |  |  | 
COc1ccc(/C=C/C(=O)c2c(C)[n+]([O-])c3ccccc3[n+]2[O-])cc1 [Compound 3f] |  |  |  |  |  | 99.7 ± 2.97 | 86.9 ± 6.3 | > 500 | > 500 | > 500 | 13.4 (≈ 40 µM) | 26.9 (≈ 79.9 µM) | 99 | 87 | little or no activity |  |  | 
Cc1c(C(=O)/C=C/c2ccc(N(C)C)cc2)[n+]([O-])c2ccccc2[n+]1[O-] [Compound 3h] |  |  |  |  |  |  |  | 223 (≈ 639 µM) |  | > 500 |  | 447 (≈ 1280 µM) | 395 ± 14.6 | 509 ± 14.8 | little or no activity | 447 (≈ 1280 µM) | 447 (≈ 1280 µM) | 
COc1ccc(/C=C/C(=O)c2nc3ccccc3nc2C)cc1 [Compound 5f] |  |  |  |  |  |  |  | > 500 | > 500 | > 500 | > 500 | > 500 | 653 ± 32 | 531 ± 19.3 |  |  |  | 
Cc1c(C(=O)/C=C/c2ccc([N+](=O)[O-])cc2)[n+]([O-])c2ccccc2[n+]1[O-] [Compound 3e] |  |  |  |  |  |  |  | 112 (≈ 320 µM) |  | 225 (≈ 639 µM) |  | 449 (≈ 1280 µM) | 449 ± 19.4 | 536 ± 22.9 | little or no activity | 449 (≈ 1280 µM) | 449 (≈ 1280 µM) | 
Cc1nc2ccccc2nc1C(=O)/C=C/c1cccc(O)c1 [Compound 5b] |  |  |  |  |  |  |  | 371 (≈ 1280 µM) | > 500 | > 500 | > 500 | > 500 | 526 ± 20.9 | 463 ± 9.91 |  |  |  | 
Cc1nc2ccccc2nc1C(=O)/C=C/c1cccc([N+](=O)[O-])c1 [Compound 5d] |  |  |  |  |  |  |  | > 500 | > 500 | > 500 | > 500 | > 500 | 461 ± 4.49 | 499 ± 8.75 |  |  |  | 
CC(=O)c1c(C)[n+]([O-])c2ccccc2[n+]1[O-] [Compound 2, 2-acetyl-3-methylquinoxaline-1,4-dioxide] |  |  |  |  |  |  |  | 17.4 (≈ 79.9 µM) | 4.36 (≈ 20 µM) | 17.4 (≈ 79.9 µM) | 17.4 (≈ 79.9 µM) | 8.72 (≈ 40 µM) | 288 ± 9.74 | 263 ± 3.11 | strong or moderate activity |  |  | 
Cc1c(C(=O)/C=C/c2cccc([N+](=O)[O-])c2)[n+]([O-])c2ccccc2[n+]1[O-] [Compound 3d] |  |  |  |  |  |  |  | 449 (≈ 1280 µM) | > 500 | 56.2 (≈ 160 µM) | 449 (≈ 1280 µM) | > 500 | 380 ± 10.6 | 411 ± 17.1 | little or no activity |  |  | 
CC(=O)c1nc2ccccc2nc1C [Compound 4, 2-acetyl-3-methylquinoxaline] |  |  |  |  |  |  |  | 119 (≈ 639 µM) | > 500 | 476 (≈ 2560 µM) | > 500 | > 500 | 572 ± 36.2 | 672 ± 23.2 | little or no activity |  |  | 
Cc1c(C(=O)/C=C/c2ccc(Cl)cc2)[n+]([O-])c2ccccc2[n+]1[O-] [Compound 3g] |  |  |  |  |  | 103 ± 4.08 |  | > 500 | > 500 | > 500 | 27.2 (≈ 79.8 µM) | 435 (≈ 1280 µM) | 102 | 114 ± 4.59 | little or no activity |  |  | 
CCOC(=O)c1c(C)[n+]([O-])c2ccccc2[n+]1[O-] [Compound 8, 3-methyl-2-quinoxaline-2-carboxylate-1,4-dioxide] |  |  |  |  |  |  |  | 39.7 (≈ 160 µM) |  | 19.8 (≈ 79.9 µM) | 39.7 (≈ 160 µM) | 4.96 (≈ 20 µM) | 217 ± 3.48 | 217 ± 3.52 | strong or moderate activity | 4.96 (≈ 20 µM) |  | 
Cc1c(C(=O)/C=C/c2ccccc2O)[n+]([O-])c2ccccc2[n+]1[O-] [Compound 3c] |  |  |  |  |  | 102 ± 4.13 |  | 103 (≈ 320 µM) | 103 (≈ 320 µM) | 103 (≈ 320 µM) |  | 25.8 (≈ 79.9 µM) | 102 | 192 ± 10.3 | strong or moderate activity |  | 25.8 (≈ 79.9 µM) | 
Cc1nc2ccccc2nc1C(=O)/C=C/c1ccc([N+](=O)[O-])cc1 [Compound 5e] |  |  |  |  |  |  |  | > 500 | > 500 | > 500 | > 500 | > 500 | 606 ± 34.6 | 590.1 ± 2.22 |  |  |  | 
CCOC(=O)c1nc2ccccc2nc1C [Compound 9, 3-methyl-2-quinoxaline-2-carboxylate] |  |  |  |  |  |  |  | 138 (≈ 639 µM) | > 500 | > 500 | > 500 | > 500 | 547 ± 7.71 | 610 ± 18.4 | little or no activity |  |  | 
Cc1nc2ccccc2nc1C(=O)/C=C/c1ccc(N(C)C)cc1 [Compound 5h] |  |  |  |  |  |  |  | > 500 | > 500 | > 500 | > 500 | > 500 | 626 ± 25.4 | 567 ± 26.7 |  |  |  | 
Cc1nc2ccccc2nc1C(=O)/C=C/c1ccc(Cl)cc1 [Compound 5g] |  |  |  |  |  |  |  | > 500 | > 500 | > 500 | > 500 | > 500 | 533 ± 24.8 | 689 ± 46.2 |  |  |  | 
Cc1c(C(=O)/C=C/c2ccco2)[n+]([O-])c2ccccc2[n+]1[O-] [Compound 6, 3-methyl-2-(3-fura-2-propenoyl)-quinoxaline-1,4-dioxide] |  |  |  |  |  |  |  |  |  | 189 (≈ 639 µM) |  | 94.7 (≈ 320 µM) | 240 ± 34.8 | 299 ± 6.72 | strong or moderate activity | 94.7 (≈ 320 µM) | 94.7 (≈ 320 µM) | 94.7 (≈ 320 µM)
Cc1nc2ccccc2nc1C(=O)O [Compound 10, 3-methyl-quinoxaline-2-carboxylic acid] |  |  |  |  |  |  |  | 481 (≈ 2560 µM) | > 500 | > 500 | > 500 | > 500 | 2490 ± 133 | 2120 ± 90.1 |  |  |  | 
Cc1nc2ccccc2nc1C(=O)/C=C/c1ccccc1O [Compound 5c] |  |  |  |  |  |  |  | 371 (≈ 1280 µM) | > 500 | > 500 | > 500 | > 500 | 274 ± 11.6 | 361 ± 10.2 |  |  |  | 
